Reference: patent US20120295907A1, “INSECTICIDAL COMPOUNDS” (SYNGENTA CROP PROTECTION, LLC, priority 2009, published 2012)

What was measured:
Type in all cases: in vivo
[1] = test system: Spodoptera littoralis; test: Spodoptera littoralis (Egyptian Cotton Leafworm) cotton leaf disc spray test; conditions: foliar, 72 h, 200 ppm spray on cotton leaf discs, L1 larvae, mortality, feeding behavior, growth regulation 3 DAT
[2] = test system: Heliothis virescens; test: Heliothis virescens (Tobacco Budworm) egg test on artificial diet; conditions: 96 h, 200 ppm (concentration in well 18 ppm), eggs 0-24 h old on artificial diet, 4 days, egg mortality, larval mortality, growth regulation
[3] = test system: Plutella xylostella; test: Plutella xylostella (Diamond Back Moth) artificial diet MTP test; conditions: 144 h, 200 ppm (concentration in well 18 ppm), L2 larvae, 6 days, larval mortality, growth regulation
[4] = test system: Diabrotica balteata; test: Diabrotica balteata (Corn Root Worm) artificial diet MTP test; conditions: 120 h, 200 ppm (concentration in well 18 ppm), L2 larvae, 5 days, larval mortality, growth regulation
[5] = test system: Thrips tabaci; test: Thrips tabaci (Onion Thrips) sunflower leaf disc spray test; conditions: foliar, 168 h, 200 ppm spray on sunflower leaf discs, population of mixed ages, 7 days, mortality

Measured: pest or weed control at 200 ppm

CCc1cc(C(F)(C(F)(F)F)C(F)(F)C(F)(F)F)cc(C)c1NC(=O)c1cccc(NC(=O)c2cccc(Cl)c2)c1OC (stereo not drawn) [A8]
≥ 80%: [1] | [2] | [3] | [4] | [5]

CCc1cc(C(F)(C(F)(F)F)C(F)(F)C(F)(F)F)cc(C)c1NC(=O)c1cccc(NC(=O)c2ccccc2Cl)c1OC (stereo not drawn) [A9]
≥ 80%: [1] | [2] | [3] | [4] | [5]

CCc1cc(C(F)(C(F)(F)F)C(F)(F)C(F)(F)F)cc(C)c1NC(=O)c1cccc(NC(=O)c2ccccc2)c1OC (stereo not drawn) [A19]
≥ 80%: [1] | [2] | [3] | [4] | [5]

CCc1cc(C(F)(C(F)(F)F)C(F)(F)C(F)(F)F)cc(C)c1NC(=O)c1cccc(NC(=O)c2cccc(F)c2F)c1OC (stereo not drawn) [A20]
≥ 80%: [1] | [2] | [3] | [4] | [5]

COc1c(NC(=O)c2ccccc2C(F)(F)F)cccc1C(=O)Nc1c(Cl)cc(C(F)(C(F)(F)F)C(F)(F)C(F)(F)F)cc1Br (stereo not drawn) [B20]
≥ 80%: [1] | [2] | [3] | [4] | [5]

COc1c(NC(=O)c2ccc(C(C)C)cc2)cccc1C(=O)Nc1c(Cl)cc(C(F)(C(F)(F)F)C(F)(F)C(F)(F)F)cc1Br (stereo not drawn) [B25]
≥ 80%: [1] | [2] | [3] | [4] | [5]

COc1c(NC(=O)c2cc(Cl)ccc2Cl)cccc1C(=O)Nc1c(Cl)cc(C(F)(C(F)(F)F)C(F)(F)C(F)(F)F)cc1Br (stereo not drawn) [B27]
≥ 80%: [1] | [2] | [3] | [4] | [5]

COc1c(NC(=O)c2c(-c3ccccc3)noc2C)cccc1C(=O)Nc1c(Cl)cc(C(F)(C(F)(F)F)C(F)(F)C(F)(F)F)cc1Br (stereo not drawn) [B46]
≥ 80%: [5]

COc1c(NC(=O)c2ccc(-c3ccccc3)o2)cccc1C(=O)Nc1c(Cl)cc(C(F)(C(F)(F)F)C(F)(F)C(F)(F)F)cc1Br (stereo not drawn) [B49]
≥ 80%: [5]

COc1c(NC(=O)c2ccc(Br)o2)cccc1C(=O)Nc1c(Cl)cc(C(F)(C(F)(F)F)C(F)(F)C(F)(F)F)cc1Br (stereo not drawn) [B52]
≥ 80%: [1] | [2] | [3] | [4] | [5]

COc1c(NC(=O)c2cc(C)oc2C)cccc1C(=O)Nc1c(Cl)cc(C(F)(C(F)(F)F)C(F)(F)C(F)(F)F)cc1Br (stereo not drawn) [B58]
≥ 80%: [1] | [2] | [3] | [4] | [5]

COc1c(NC(=O)c2cccc(C)c2[N+](=O)[O-])cccc1C(=O)Nc1c(Cl)cc(C(F)(C(F)(F)F)C(F)(F)C(F)(F)F)cc1Br (stereo not drawn) [B87]
≥ 80%: [1] | [2] | [3] | [4] | [5]

COc1c(NC(=O)c2cc(C(F)(F)F)n(C)n2)cccc1C(=O)Nc1c(Cl)cc(C(F)(C(F)(F)F)C(F)(F)C(F)(F)F)cc1Br (stereo not drawn) [B92]
≥ 80%: [1] | [4] | [5]

COc1c(NC(=O)c2cc(C(C)(C)C)nn2C)cccc1C(=O)Nc1c(Cl)cc(C(F)(C(F)(F)F)C(F)(F)C(F)(F)F)cc1Br (stereo not drawn) [B112]
≥ 80%: [1] | [2] | [3] | [4] | [5]

COc1c(NC(=O)c2ccnc(C(F)(F)F)c2Cl)cccc1C(=O)Nc1c(Cl)cc(C(F)(C(F)(F)F)C(F)(F)C(F)(F)F)cc1Br (stereo not drawn) [B115]
≥ 80%: [1] | [2] | [3] | [4] | [5]

COc1cc(C(=O)Nc2cccc(C(=O)Nc3c(Cl)cc(C(F)(C(F)(F)F)C(F)(F)C(F)(F)F)cc3Br)c2OC)cc(Cl)n1 (stereo not drawn) [B146]
≥ 80%: [1] | [2] | [3] | [4] | [5]

COc1c(NC(=O)c2ccc([N+](=O)[O-])c(C)c2I)cccc1C(=O)Nc1c(Cl)cc(C(F)(C(F)(F)F)C(F)(F)C(F)(F)F)cc1Br (stereo not drawn) [B161]
≥ 80%: [2] | [3] | [4] | [5]

COc1c(NC(=O)c2ccc([N+](=O)[O-])c(C)c2Br)cccc1C(=O)Nc1c(Cl)cc(C(F)(C(F)(F)F)C(F)(F)C(F)(F)F)cc1Br (stereo not drawn) [B162]
≥ 80%: [2] | [3] | [4] | [5]

COc1c(NC(=O)c2ccc([N+](=O)[O-])c(C)c2Cl)cccc1C(=O)Nc1c(Cl)cc(C(F)(C(F)(F)F)C(F)(F)C(F)(F)F)cc1Br (stereo not drawn) [B163]
≥ 80%: [2] | [3] | [4] | [5]

COc1c(NC(=O)c2ccc(C(F)(F)F)cc2F)cccc1C(=O)Nc1c(Cl)cc(C(F)(C(F)(F)F)C(F)(F)C(F)(F)F)cc1Br (stereo not drawn) [B167]
≥ 80%: [1] | [2] | [4] | [5]

COc1c(NC(=O)c2ccc([N+](=O)[O-])c(N(C)C)c2)cccc1C(=O)Nc1c(Cl)cc(C(F)(C(F)(F)F)C(F)(F)C(F)(F)F)cc1Br (stereo not drawn) [B175]
≥ 80%: [1] | [2] | [3] | [5]

COc1c(NC(=O)c2ccccc2F)cccc1C(=O)Nc1c(Cl)cc(C(F)(C(F)(F)F)C(F)(F)C(F)(F)F)cc1Cl (stereo not drawn) [C3]
≥ 80%: [1] | [2] | [3] | [4] | [5]

COc1c(NC(=O)c2ccccc2Cl)cccc1C(=O)Nc1c(Cl)cc(C(F)(C(F)(F)F)C(F)(F)F)cc1Cl [E3]
≥ 80%: [1] | [2] | [4] | [5]

COc1c(NC(=O)c2ccccc2C(F)(F)F)cccc1C(=O)Nc1c(Cl)cc(C(F)(C(F)(F)F)C(F)(F)F)cc1Cl [E18]
≥ 80%: [1] | [2] | [3] | [4] | [5]

COc1c(NC(=O)c2ccc(F)cc2F)cccc1C(=O)Nc1c(Cl)cc(C(F)(C(F)(F)F)C(F)(F)F)cc1Cl [E22]
≥ 80%: [1] | [2] | [3] | [4] | [5]

COc1c(NC(=O)c2ccccc2Cl)cccc1C(=O)Nc1c(C)cc(C(F)(C(F)(F)F)C(F)(F)C(F)(F)F)cc1C (stereo not drawn) [F3]
≥ 80%: [1] | [2] | [3] | [4] | [5]

COc1c(NC(=O)c2cccc(F)c2F)cccc1C(=O)Nc1c(C)cc(C(F)(C(F)(F)F)C(F)(F)C(F)(F)F)cc1C (stereo not drawn) [F8]
≥ 80%: [1] | [2] | [3] | [4] | [5]

COc1c(NC(=O)c2ccc(Cl)c(Cl)c2)cccc1C(=O)Nc1c(C)cc(C(F)(C(F)(F)F)C(F)(F)C(F)(F)F)cc1C (stereo not drawn) [F17]
≥ 80%: [1] | [2] | [3] | [4]

COc1c(NC(=O)c2ccc(Cl)cc2)cccc1C(=O)Nc1c(C)cc(C(F)(C(F)(F)F)C(F)(F)C(F)(F)F)cc1C (stereo not drawn) [F19]
≥ 80%: [1] | [2] | [3] | [4]

COc1c(NC(=O)c2cccc(F)c2)cccc1C(=O)Nc1c(C)cc(C(F)(C(F)(F)F)C(F)(F)C(F)(F)F)cc1C (stereo not drawn) [F20]
≥ 80%: [1] | [2] | [3] | [4] | [5]

COc1cccc(C(=O)Nc2cccc(C(=O)Nc3c(C)cc(C(F)(C(F)(F)F)C(F)(F)C(F)(F)F)cc3C)c2OC)c1 (stereo not drawn) [F22]
≥ 80%: [1] | [2] | [3] | [4]

COc1c(NC(=O)c2ccc([N+](=O)[O-])c(C)c2)cccc1C(=O)Nc1c(C)cc(C(F)(C(F)(F)F)C(F)(F)C(F)(F)F)cc1C (stereo not drawn) [F23]
≥ 80%: [1] | [2] | [3] | [4]

COc1c(NC(=O)c2ccc(C(F)(F)F)cc2)cccc1C(=O)Nc1c(C)cc(C(F)(C(F)(F)F)C(F)(F)C(F)(F)F)cc1C (stereo not drawn) [F26]
≥ 80%: [1] | [2] | [3] | [4]
